Test results published in PMC8619068, “Transformation of Tetracycline by Manganese Peroxidase from Phanerochaete chrysosporium” (Molecules, 2021).

System: T1, manganese peroxidase (MnP)
T1 construct: gene MNP1; native secreted enzyme purified from culture fluid (ultrafiltration, DEAE, Sephadex G-75); single band on SDS-PAGE
Assay: HPLC-UV ([…] nm) of residual tetracycline; non-linear Michaelis-Menten fit
Assay type: biochemical, Phanerodontia chrysosporium
Conditions: MnSO4 0.1 mmol/L, H2O2 0.2 mmol/L, MnP 40 U/L, tartrate buffer 0.05 mol/L pH 4.5, 37 °C (general removal assay); oxidation mediated by Mn3+

Work on `CN(C)[C@@H]1C(=O)C(C(N)=O)=C(O)[C@@]2(O)C(=O)C3=C(O)c4c(O)cccc4[C@@](C)(O)[C@H]3C[C@@H]12` [TC, tetracycline] yielded a Km of 238.23 mg/L.
